{"source": "patent US8372831B2", "about": "“Isoxazoline linked pyrrolo[2,1-c][1,4]benzodiazepine hybrids as potential anticancer agents and the process for preparation thereof” (Council of Scientific & Industrial Research, priority 2008, dated 2013)", "key": {"[1]": {"test_system": "HT29", "test": "NCI SRB cytotoxicity, HT29 (colon)", "assay_type": "cell-based, human", "conditions": "48 hrs exposure", "method": "(§1) Biological Activity: The in vitro biological activity studies were carried out at the National Cancer Institute, Maryland, USA.\n(§2) The C8-linked isoxazoline-PBD hybrids have been tested against sixty human tumour cell lines derived from nine cancer types (leukemia, non-small cell lung cancer, colon cancer, CNS cancer, melanoma, ovarian cancer, renal cancer, prostate cancer and breast cancer) as per NCI protocol. For each compound, dose response curves for individual cell lines have been measured at a minimum of five concentrations at 10 fold dilutions. A protocol of 48 hrs continuous drug exposure has been used, and a sulforhodamine B (SRB) protein assay was used to estimate cell viability or growth. The concentration for 50% cell growth inhibition (GI50), total cell growth inhibition (TGI, 0% growth) and 50% cell death (LC50, […]) compared with the control has been calculated (FIG. 2).\n(§3) Compound 5b and 9b have been evaluated for in vitro cytotoxicity in sixty cell lines from nine human cancer types of lung (Hop-62, NCI-H226, NCI-H522), leukemia (K-562, SR), colon (HCT-116, HCT-15, HCC-2998), CNS(SF-539), melanoma (SK-MEL-5, UACC-62, M14), ovarian (IGROV1), renal (A498), prostate (PC3) breast (BT-549, MDA-MB-435, HS578T) origin. The results are expressed as percent of cell growth determined relative to that of untreated control cells (Table 1)."}, "[2]": {"test_system": "sixty human tumour cell lines", "test": "NCI in vitro cytotoxicity, sixty human tumour cell lines (SRB)", "assay_type": "cell-based", "conditions": "for GI50: bound over all cell lines; for Log10 GI50 mean graph midpoint (MG_MID) / Log10 TGI mean graph midpoint (MG_MID): human tumour cell lines; for Log10 TGI mean graph midpoint (MG_MID): total cell growth inhibition", "method": "as §1, §2, §3"}, "[3]": {"test_system": "A498", "test": "NCI SRB cytotoxicity, A498 (renal)", "assay_type": "cell-based, human", "conditions": "48 hrs exposure", "method": "as §1, §2, §3"}, "[4]": {"conditions": "text b111, read-out: GI50 against sixty cell lines in nine cancer cell panels"}}, "note": "Read-outs that look alike come from different tables or passages of the source.", "data": [{"smiles": "COc1cc(C2=NOC(c3cc(OC)c(OC)c(OC)c3)C2)ccc1OCCCCOc1cc2c(cc1OC)C(=O)N1CCC[C@H]1C=N2", "note": "(stereo partly drawn) [Compound 5b, (11aS)-7-(methyloxy)-8-(4-[(2-(methyloxy)-4-5-[3,4,5-tri(methyloxy)phenyl]-4,5-dihydro-3-isoxazolylphenyl)oxy]butyloxy)-2,3,5,11a-tetrahydro-1H benzo[e]pyrrolo[1,2-a][1,4]diazepin-5-one]", "values": [{"measurement": "GI50", "setting": "[1]", "value": 0.36, "unit": "µM"}, {"measurement": "GI50", "setting": "[2]; read-out: GI50 against sixty cell lines in nine cell panels", "value": "< 0.47", "unit": "µM"}, {"measurement": "in vitro cytotoxicity (in words)", "setting": "[2]; human cancer cell lines", "value": "significant cytotoxicity"}, {"measurement": "Log10 GI50 mean graph midpoint (MG_MID)", "setting": "[2]", "value": "−6.59"}, {"measurement": "Log10 TGI mean graph midpoint (MG_MID)", "setting": "[2]", "value": "−6.05"}, {"measurement": "activity of 5b compared with 9b", "setting": "[2]; in vitro cytotoxicity, comparison of GI50", "value": "ten folds higher activity than 9b"}, {"measurement": "GI50", "setting": "[2]; [4]", "value": "< 0.47", "unit": "µM"}]}, {"smiles": "COc1ccc(C2CC(c3ccc(OC)c(OC)c3OC)=NO2)cc1OCCCCOc1cc2c(cc1OC)C(=O)N1CCC[C@H]1C=N2", "note": "(stereo partly drawn) [Compound 9b, (11aS)-7-(methyloxy)-8-(4-[(2-(methyloxy)-5-3-[2,3,4-tri(methyloxy)phenyl]-4,5-dihydro-5-isoxazolylphenyl)oxy]butyloxy)-2,3,5,11a-tetrahydro-1H-benzo[e]pyrrolo[1,2-a][1,4]diazepin-5-one]", "values": [{"measurement": "GI50", "setting": "[3]", "value": 1.72, "unit": "µM"}, {"measurement": "GI50", "setting": "[1]", "value": 2.75, "unit": "µM"}, {"measurement": "Log10 GI50 mean graph midpoint (MG_MID)", "setting": "[2]", "value": "−5.73"}, {"measurement": "Log10 TGI mean graph midpoint (MG_MID)", "setting": "[2]", "value": "−5.28"}, {"measurement": "GI50", "setting": "[2]; [4]", "value": "< 3.54", "unit": "µM"}]}]}
